Values of other authors in PMC8900053, “Selumetinib in combination with dexamethasone for the treatment of relapsed/refractory RAS-pathway mutated paediatric and adult acute lymphoblastic leukaemia (SeluDex): study protocol for an international, parallel-group, dose-finding with expansion phase I/II trial” (BMJ Open, 2022).

Legend:
[1] = human, in vivo
[2] = early information from clinical studies
[3] = common side effect of selumetinib

Row | SMILES | Tolerability of pulsed dosing versus continuous dosing [1] | Chance that blurred vision may affect daily living (blurred vision mild or moderate in all reported previous cases) | Being sick (people affected) [3] [%] | Diarrhoea (people affected) [3] [%] | Feeling sick (people affected) [3] [%] | Feeling tired or weak (people affected) [3] [%] | Shortness of breath (people affected) [3] [%] | Skin rash, which may be itchy (people affected) [3] [%] | Swelling of the hands or feet (people affected) [3] [%] | Tolerability (more than 3,080 people have had the drug so far) | Swelling of the face or extremities (patients receiving selumetinib) | Skin rash cases that can be more serious and require treatment (share of skin rash cases, majority of events are mild) | Blood levels of selumetinib in people of Asian origin versus non-Asian subjects [2]
1 | C[C@@H]1C[C@H]2[C@@H]3CCC4=CC(=O)C=C[C@]4(C)[C@@]3(F)[C@@H](O)C[C@]2(C)[C@@]1(O)C(=O)CO [dexamethasone] | better tolerated | – | – | – | – | – | – | – | – | – | – | – | –
2 | Cn1cnc2c(F)c(Nc3ccc(Br)cc3Cl)c(C(=O)NOCCO)cc21 [selumetinib] | – | about 5% | ~30 | ~50 | ~50 | ~40 | ~20 | ~70 | ~30 | very well tolerated | commonly reported | around 10% | higher
